Test results published in patent US4352817A, “Imidazo-diazepines and their use” (priority 1982, dated 1982).

Tests used:
Schistosoma mansoni [1] = assay: Schistosomicidal activity in infected golden hamsters; type: in vivo; settings: Hamster
Procedure: (§1) Mice and golden hamsters are infected subcutaneously with 60 cercaria of Schistosoma mansoni. About 42 days after the infection, they are treated orally with a single dosage of the preparation to be tested. 5 animals are used per preparation and dosage. 10 untreated animals are used as controls. The animals are killed and dissected 2 weeks (hamster) or 3 weeks (mice) after the treatment. Worm pairs in mesenteric veins, portal vein and liver are dissected-out, counted and the condition of the worms (living or dead) are registered. A schistosomicidal activity of a preparation manifests itself in the appearance of dead worms in the vessels of the liver. Dead worms are never found in untreated control animals. The test is evaluated by calculating the percentage of dead worm pairs in the liver of infected, treated animals.

Schistosoma mansoni [2] = assay: In vitro schistosomicidal activity (motility of worm pairs); type: cell-based; set-up: key to Activity: worm pairs motionless within 15 minutes; b: worm pairs show normal motility during the test period of 120 hours; settings: for Activity: 37° C., 120 hours
Procedure: In order to test the in vitro activity of preparations, worm pairs of Schistosoma mansoni are isolated from mice and incubated at 37° C. in a nutrient medium. Preparations are added in the form of a solution or as a suspension. The motility of the worms is observed under a microscope and registered during the test period of 120 hours. A schistosomicidal activity of a preparation manifests itself in the more or less rapid loss of motility of the worms. Control worms in the nutrient medium without the addition of a preparation maintain their normal motility during the entire test period of 120 hours.

Schistosoma mansoni [3] = assay: Schistosomicidal activity in infected mice; type: in vivo; settings: for Schistosomicidal activity in %: Mouse
Procedure: as §1

[4] = biological target: central benzodiazepine receptors (cerebral cortex); assay: Inhibition of binding of tritiated diazepam at the specific benzodiazepine receptors in the cerebral cortex
Procedure: The affinity of compounds of formula I to the central benzodiazepine receptors was determined according to the method described in Life Science 20, 2101-2110 (1977) and Science 198, 849-851 (1977). According to this method, the inhibition of the binding of tritiated diazepam at the specific benzodiazepine receptors in the cerebral cortex by the respective test substances is ascertained. The IC50 ("50% inhibiting concentration") is that concentration of the respective test substance which brings about a 50 percent inhibition of the specific binding of the tritiated diazepam at the specific benzodiazepine receptors in the cerebral cortex.

[5] = test system: diazepam effect in the pentetrazole test; assay: Antagonism of diazepam in the pentetrazole test; type: in vivo, mice; settings: for ED50: Mus musculus, po, 0.25 h, mice, diazepam 5 mg/kg i.p. 1 hour before pentetrazole 120 mg/kg i.p., test compound p.o. 15 minutes before pentetrazole
Procedure: This property was used to evaluate the test described hereinafter which permits the determination of compounds which are capable of antagonizing the central properties of 1,4-benzodiazepines which have tranquillizing activity.
The antagonistic activity of the compounds investigated, i.e. their ability to counteract the activity of the diazepam in the pentetrazole test, is determined by counting the mice which suffer convulsive attacks in this test.
(§2) In the following Table there are presented the results which have been obtained with representative members of the class of compound defined by formula I in the test previously described. The ED50 is the amount of test compound in mg/kg (p.o.) which counteracts in 50% of the animals the diazepam effect in the above test. Moreover, the Table contains the IC50 value defined above for all test compounds listed therein as well as data concerning the acute toxicity of certain of these compounds (LD50 in mg/kg in the case of single oral administration to mice).

[6] = Acute toxicity, single oral administration to mice; settings: mouse, in vivo
Source text: as §2

SMILES	IC50 [4]	ED50 [5]	also measured
CC1N=C(c2ccccc2Cl)c2cc([N+](=O)[O-])ccc2NC1=O (single isomer, unassigned; (+)) [Compound S, (+)-5-(o-chlorophenyl)-1,3-dihydro-3-methyl-7-nitro-2H-1,4-benzodiazepin-2-one, reference compound]			Schistosomicidal activity in % (Schistosoma mansoni [1]; Compound S 75 mg/kg p.o. alone): 100%; Activity (Schistosoma mansoni [2]; Compound S 25 ug/ml alone): a (worm pairs motionless within 15 minutes); Schistosomicidal activity in % (Schistosoma mansoni [3]; Compound S 75 mg/kg p.o. alone): 100%
CN1Cc2c(C(=O)OC(C)(C)C)ncn2-c2ccc(F)cc2C1=O [(a) F H --CH3 O, t-butyl 8-fluoro-5,6-dihydro-5-methyl-6-oxo-4H-imidazo[1,5-a][1,4]benzodiazepine-3-carboxylate]	1.4 nM	8.4 mg/kg	
CN1Cc2c(C(=O)OC(C)(C)C)ncn2-c2cccc(Br)c2C1=O [(a) H Br --CH3 O, t-butyl 7-bromo-5,6-dihydro-5-methyl-6-oxo-4H-imidazo[1,5-a][1,4]benzodiazepine-3-carboxylate]	2.3 nM	0.13 mg/kg	
CN1Cc2c(C(=O)OC(C)(C)C)ncn2-c2cccc(C#N)c2C1=O [(a) H CN --CH3 O, t-butyl 7-cyano-5,6-dihydro-5-methyl-6-oxo-4H-imidazo[1,5-a][1,4]benzodiazepine-3-carboxylate]	10 nM	1.22 mg/kg	
CN1Cc2c(C(=O)OC(C)(C)C)ncn2-c2cccc(Cl)c2C1=O [(a) H Cl --CH3 O, t-butyl 7-chloro-5,6-dihydro-5-methyl-6-oxo-4H-imidazo[1,5-a][1,4]benzodiazepine-3-carboxylate]	3 nM	0.2 mg/kg	Schistosomicidal activity in % (Schistosoma mansoni [1]; Compound A 225 mg/kg p.o. alone): 0%; Activity (Schistosoma mansoni [2]; Compound A 25 ug/ml alone): b; Activity (Schistosoma mansoni [2]; Compound A 100 ug/ml alone): b; influence on schistosomicidal activity of compound S (Schistosoma mansoni [2]; in vitro test): not influenced detrimentally; LD50 [6]: 312 mg/kg; Schistosomicidal activity in % (Schistosoma mansoni [3]; Compound A 300 mg/kg p.o. alone): 0%; influence on schistosomicidal activity of compound S (Schistosoma mansoni [3]; animal tests (mice and hamsters)): not influenced detrimentally
CN1Cc2c(C(=O)OC(C)(C)C)ncn2-c2ccccc2C1=O [(a) H H --CH3 O, t-butyl 5,6-dihydro-5-methyl-6-oxo-4H-imidazo[1,5-a][1,4]benzodiazepine-3-carboxylate]	3.3 nM	4.7 mg/kg	LD50 [6]: 625 mg/kg
CN1Cc2c(C(=O)OC(C)(C)C)ncn2-c2ccccc2C1=S [(a) H H --CH3 S, t-butyl 5,6-dihydro-5-methyl-6-thioxo-4H-imidazo[1,5-a][1,4]benzodiazepine-3-carboxylate]	8.9 nM	7.1 mg/kg	
CN1Cc2c(C(=O)OC(C)(C)C)ncn2-c2cccc(I)c2C1=O [(a) H I --CH3 O, t-butyl 5,6-dihydro-7-iodo-5-methyl-6-oxo-4H-imidazo[1,5-a][1,4]benzodiazepine-3-carboxylate]	2.6 nM	0.14 mg/kg	
CN1C(=O)CN=C(c2ccccc2)c2cc(Cl)ccc21 [diazepam, reference compound]			experimental animals protected from convulsive attacks in the pentetrazole test ([5]; diazepam 5 mg/kg i.p., more than 900 mice): protects all experimental animals from convulsive attacks
